Test system: 991263-137-R1-J2-PDC complex spheroid viability
Experiment: Anticancer human tumor 991263-137-R1-J2-PDC patient-derived colon adenocarcinoma cell line growth inhibition [POLQ]
Conditions: for IC50: curve of first compound; for viability, T/C: stronger effect = lower value
Procedure, shortened: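 Growth inhibition in 3D: complex spheroids (tumor PDC, HUVEC, MSC) treated with POLQ inhibitor combinations; where Cmax unknown, highest tested concentration 10 microM, except SN-38 at 1 microM.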

[1] = second compound 0.0316 µM, first compound 0.0316 µM
[2] = second compound 0.0316 µM, first compound 0.1 µM
[3] = second compound 0.0316 µM, first compound 0.316 µM
[4] = second compound 0.0316 µM, first compound 1 µM
[5] = second compound 0.0316 µM, first compound 3.16 µM
[6] = second compound 0.0316 µM, first compound 10 µM
[7] = second compound 0.1 µM, first compound 0.0316 µM
[8] = second compound 0.1 µM, first compound 0.1 µM
[9] = second compound 0.1 µM, first compound 0.316 µM
[10] = second compound 0.1 µM, first compound 1 µM
[11] = second compound 0.1 µM, first compound 3.16 µM
[12] = second compound 0.1 µM, first compound 10 µM
[13] = second compound 0.316 µM, first compound 0.0316 µM
[14] = second compound 0.316 µM, first compound 0.1 µM
[15] = second compound 0.316 µM, first compound 0.316 µM
[16] = second compound 0.316 µM, first compound 1 µM
[17] = second compound 0.316 µM, first compound 3.16 µM
[18] = second compound 0.316 µM, first compound 10 µM
[19] = second compound 1 µM, first compound 0.0316 µM
[20] = second compound 1 µM, first compound 0.1 µM
[21] = second compound 1 µM, first compound 0.316 µM
[22] = second compound 1 µM, first compound 1 µM
[23] = second compound 1 µM, first compound 3.16 µM
[24] = second compound 1 µM, first compound 10 µM
[25] = second compound 3.16 µM, first compound 0.0316 µM
[26] = second compound 3.16 µM, first compound 0.1 µM
[27] = second compound 3.16 µM, first compound 0.316 µM
[28] = second compound 3.16 µM, first compound 1 µM
[29] = second compound 3.16 µM, first compound 3.16 µM
[30] = second compound 3.16 µM, first compound 10 µM
[31] = second compound 10 µM, first compound 0.0316 µM
[32] = second compound 10 µM, first compound 0.1 µM
[33] = second compound 10 µM, first compound 0.316 µM
[34] = second compound 10 µM, first compound 1 µM
[35] = second compound 10 µM, first compound 3.16 µM
[36] = second compound 10 µM, first compound 10 µM
[37] = second compound 0.0316 µM, first compound 0.00316 µM
[38] = second compound 0.0316 µM, first compound 0.01 µM
[39] = second compound 0.1 µM, first compound 0.00316 µM
[40] = second compound 0.1 µM, first compound 0.01 µM
[41] = second compound 0.316 µM, first compound 0.00316 µM
[42] = second compound 0.316 µM, first compound 0.01 µM
[43] = second compound 1 µM, first compound 0.00316 µM
[44] = second compound 1 µM, first compound 0.01 µM
[45] = second compound 3.16 µM, first compound 0.00316 µM
[46] = second compound 3.16 µM, first compound 0.01 µM
[47] = second compound 10 µM, first compound 0.00316 µM
[48] = second compound 10 µM, first compound 0.01 µM
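Also: spheroids exposed to compounds for 7 days before readout.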
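For viability, T/C in this document: 100% = DMSO vehicle control viability.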

COc1cc(C2c3cc4c(cc3C(OC3OC5COC(C)OC5C(O)C3O)C3COC(=O)C23)OCO4)cc(OC)c1O (stereo not drawn) + Cc1cccc(N(C)C(=O)C2C(O)CCN2c2nc(C)cc(C(F)(F)F)c2C#N)c1
IC50 (second compound 0.0316 µM): > 10000 nM | IC50 (second compound 0.1 µM): > 10000 nM | IC50 (second compound 0.316 µM): > 10000 nM | IC50 (second compound 1 µM): > 10000 nM | IC50 (second compound 3.16 µM): > 10000 nM | IC50 (second compound 10 µM): > 10000 nM | viability, T/C [1]: 115% | viability, T/C [2]: 99% | viability, T/C [3]: 87.1% | viability, T/C [4]: 90.5% | viability, T/C [5]: 102% | viability, T/C [6]: 84.7% | viability, T/C [7]: 95.2% | viability, T/C [8]: 103% | viability, T/C [9]: 75.8% | viability, T/C [10]: 98.1% | viability, T/C [11]: 86.3% | viability, T/C [12]: 73.1% | viability, T/C [13]: 104% | viability, T/C [14]: 102% | viability, T/C [15]: 109% | viability, T/C [16]: 95.8% | viability, T/C [17]: 94.4% | viability, T/C [18]: 87.2% | viability, T/C [19]: 104% | viability, T/C [20]: 109% | viability, T/C [21]: 105% | viability, T/C [22]: 106% | viability, T/C [23]: 84.8% | viability, T/C [24]: 85.7% | viability, T/C [25]: 97.2% | viability, T/C [26]: 107% | viability, T/C [27]: 92.3% | viability, T/C [28]: 99.2% | viability, T/C [29]: 102% | viability, T/C [30]: 76.8% | viability, T/C [31]: 117% | viability, T/C [32]: 96.3% | viability, T/C [33]: 73.6% | viability, T/C [34]: 89.1% | viability, T/C [35]: 84.9% | viability, T/C [36]: 71.1%

C#Cc1c(F)ccc2cc(O)cc(-c3ncc4c(N5CC6CCC(C5)N6)nc(OCC56CCCN5CC(F)C6)nc4c3F)c12 (stereo not drawn) + Cc1cccc(N(C)C(=O)C2C(O)CCN2c2nc(C)cc(C(F)(F)F)c2C#N)c1
IC50 (second compound 0.0316 µM): > 10000 nM | IC50 (second compound 0.1 µM): > 10000 nM | IC50 (second compound 0.316 µM): > 10000 nM | IC50 (second compound 1 µM): > 10000 nM | IC50 (second compound 3.16 µM): > 10000 nM | IC50 (second compound 10 µM): > 10000 nM | viability, T/C [1]: 110% | viability, T/C [2]: 95.5% | viability, T/C [3]: 104% | viability, T/C [4]: 104% | viability, T/C [5]: 92.9% | viability, T/C [6]: 100% | viability, T/C [7]: 97.8% | viability, T/C [8]: 104% | viability, T/C [9]: 109% | viability, T/C [10]: 76.1% | viability, T/C [11]: 106% | viability, T/C [12]: 92.2% | viability, T/C [13]: 101% | viability, T/C [14]: 106% | viability, T/C [15]: 89.8% | viability, T/C [16]: 93.5% | viability, T/C [17]: 97.7% | viability, T/C [18]: 95.8% | viability, T/C [19]: 93.8% | viability, T/C [20]: 95% | viability, T/C [21]: 103% | viability, T/C [22]: 95.6% | viability, T/C [23]: 99.9% | viability, T/C [24]: 98.2% | viability, T/C [25]: 95% | viability, T/C [26]: 117% | viability, T/C [27]: 121% | viability, T/C [28]: 93.2% | viability, T/C [29]: 98.7% | viability, T/C [30]: 105% | viability, T/C [31]: 94.8% | viability, T/C [32]: 102% | viability, T/C [33]: 106% | viability, T/C [34]: 90.1% | viability, T/C [35]: 106% | viability, T/C [36]: 79.7%

C=CCn1c(=O)c2cnc(Nc3ccc(N4CCN(C)CC4)cc3)nc2n1-c1cccc(C(C)(C)O)n1 + Nc1ccc(C#CCN(C(=O)Cc2ncc(C(F)(F)F)cc2C(F)(F)F)c2ccc(F)cc2)nn1
IC50 (second compound 0.0316 µM): > 1000 nM | IC50 (second compound 0.1 µM): > 1000 nM | IC50 (second compound 0.316 µM): > 1000 nM | IC50 (second compound 1 µM): > 1000 nM | IC50 (second compound 3.16 µM): > 1000 nM | IC50 (second compound 10 µM): > 1000 nM | viability, T/C [37]: 96.2% | viability, T/C [38]: 100% | viability, T/C [1]: 90.4% | viability, T/C [2]: 102% | viability, T/C [3]: 104% | viability, T/C [4]: 97.8% | viability, T/C [39]: 117% | viability, T/C [40]: 105% | viability, T/C [7]: 93.6% | viability, T/C [8]: 101% | viability, T/C [9]: 103% | viability, T/C [10]: 93.8% | viability, T/C [41]: 97.3% | viability, T/C [42]: 98.2% | viability, T/C [13]: 108% | viability, T/C [14]: 96.3% | viability, T/C [15]: 109% | viability, T/C [16]: 93.5% | viability, T/C [43]: 103% | viability, T/C [44]: 115% | viability, T/C [19]: 103% | viability, T/C [20]: 105% | viability, T/C [21]: 105% | viability, T/C [22]: 92% | viability, T/C [45]: 91.8% | viability, T/C [46]: 102% | viability, T/C [25]: 101% | viability, T/C [26]: 92.1% | viability, T/C [27]: 98.1% | viability, T/C [28]: 102% | viability, T/C [47]: 86.3% | viability, T/C [48]: 102% | viability, T/C [31]: 103% | viability, T/C [32]: 99.4% | viability, T/C [33]: 102% | viability, T/C [34]: 78.2%

COc1cccc(OCCCN)c1-c1cc(Nc2cnc(C#N)cn2)n[nH]1 + Nc1ccc(C#CCN(C(=O)Cc2ncc(C(F)(F)F)cc2C(F)(F)F)c2ccc(F)cc2)nn1
IC50 (second compound 0.0316 µM): 718 nM | IC50 (second compound 0.1 µM): 587 nM | IC50 (second compound 0.316 µM): 666 nM | IC50 (second compound 1 µM): 728 nM | IC50 (second compound 3.16 µM): 425 nM | IC50 (second compound 10 µM): 87.4 nM | viability, T/C [37]: 114% | viability, T/C [38]: 89.4% | viability, T/C [1]: 105% | viability, T/C [2]: 83.4% | viability, T/C [3]: 55.9% | viability, T/C [4]: 47.5% | viability, T/C [39]: 104% | viability, T/C [40]: 105% | viability, T/C [7]: 100% | viability, T/C [8]: 82.8% | viability, T/C [9]: 57.8% | viability, T/C [10]: 43.5% | viability, T/C [41]: 102% | viability, T/C [42]: 106% | viability, T/C [13]: 103% | viability, T/C [14]: 85.1% | viability, T/C [15]: 67.9% | viability, T/C [16]: 40.7% | viability, T/C [43]: 106% | viability, T/C [44]: 95.2% | viability, T/C [19]: 89.4% | viability, T/C [20]: 80.9% | viability, T/C [21]: 70.5% | viability, T/C [22]: 42% | viability, T/C [45]: 102% | viability, T/C [46]: 93.2% | viability, T/C [25]: 83.4% | viability, T/C [26]: 70.4% | viability, T/C [27]: 51.5% | viability, T/C [28]: 41.4% | viability, T/C [47]: 93.3% | viability, T/C [48]: 96.5% | viability, T/C [31]: 73% | viability, T/C [32]: 46.8% | viability, T/C [33]: 49.9% | viability, T/C [34]: 44.2%

From PubChem BioAssay AID1963828 (Molecular Pharmacology Branch, DTP, NCI, 2024)
